The target of the data set is T1, hypothalamic CPT1 (Rattus norvegicus, UniProt P32198).
T1 sequence (P32198 1-773): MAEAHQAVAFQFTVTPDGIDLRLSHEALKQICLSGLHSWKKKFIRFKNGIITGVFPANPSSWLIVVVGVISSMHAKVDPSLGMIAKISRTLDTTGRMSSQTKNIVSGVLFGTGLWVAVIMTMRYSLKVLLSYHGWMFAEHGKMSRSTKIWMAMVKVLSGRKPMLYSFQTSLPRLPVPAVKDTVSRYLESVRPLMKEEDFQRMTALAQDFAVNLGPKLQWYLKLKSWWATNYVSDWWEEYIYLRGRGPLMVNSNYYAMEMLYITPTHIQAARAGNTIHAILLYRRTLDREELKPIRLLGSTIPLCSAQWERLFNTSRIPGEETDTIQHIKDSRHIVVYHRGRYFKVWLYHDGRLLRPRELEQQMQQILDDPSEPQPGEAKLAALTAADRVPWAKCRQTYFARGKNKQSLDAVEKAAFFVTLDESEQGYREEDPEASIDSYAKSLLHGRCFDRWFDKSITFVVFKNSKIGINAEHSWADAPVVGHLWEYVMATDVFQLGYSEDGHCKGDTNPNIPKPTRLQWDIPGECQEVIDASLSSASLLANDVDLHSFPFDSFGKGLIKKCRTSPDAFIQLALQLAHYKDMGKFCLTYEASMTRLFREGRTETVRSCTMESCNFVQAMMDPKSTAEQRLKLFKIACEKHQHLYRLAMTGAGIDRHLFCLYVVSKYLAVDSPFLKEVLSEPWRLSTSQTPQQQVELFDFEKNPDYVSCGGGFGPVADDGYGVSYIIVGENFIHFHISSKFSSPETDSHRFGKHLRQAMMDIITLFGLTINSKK
Description: ICV infusion with pancreatic-insulin clamp, glucose kinetics (Example 1). In kind it is in vivo. Also on record: CPT1 activity was measured in the particulate fraction of protein extracts from animals treated with ICV control injections; from tissue; host or cells: hypothalamus (arcuate nucleus) of male Sprague-Dawley rats, in vivo or ex vivo; Insulin (iU/ml): unit not given here. The following applies: for Food Intake: measured prior to acute ICV infusion, except CPT1L-Ribo group (3 days after ICV); for decrease in glucose production (GP): basal and equal insulin levels (~20 μU/ml), ICV; for glucose production (GP) during pancreatic clamp vs ICV vehicle controls: ~basal insulin concentrations, p<0.01. As for the experimental part: Hypothalamic inhibition of CPT1 inhibits glucose production. Experiments were also designed to examine the effect of central inhibition of CPT-1 on whole body insulin action (FIG. 4a,b). Insulin action was assessed by a combination of ICV infusions with systemic pancreatic-insulin clamp studies (FIG. 4b). In these studies, the daily food intake was matched in the rats receiving ICV vector and ICV CPT1L-Ribo (Table 1). All rats also received an intra-arterial infusion of [3-^3H]-glucose for the last 4 hr of ICV infusion and a pancreatic/insulin clamp (insulin 1 mU/kg.min; somatostatin 3 μg/kg/min) during the last 2 hr of the study (Obici et al., 2002a; Obici et al., 2001). As expected in the presence of ˜basal circulating insulin levels (clamp procedure; Table 1), the rate of glucose infusion (GIR) required to maintain euglycemia was marginal in ICV control studies (vector-ST1340- or vehicle-infused animals; ˜0.8 mg/kg/min). By contrast, following ICV infusion of inhibitors of CPT-1 expression or activity glucose had to be infused at the rate of ˜5 mg/kg/min in order to prevent hypoglycemia. Thus, central inhibition of CPT-1 activity in the presence of fixed and basal insulin concentrations stimulates insulin action on glucose homeostasis.
Animal preparation for in vivo experiments. We studied ninety-three 10-week old male Sprague-Dawley rats (Charles River Breeding Laboratories, Wilmington, Mass.). Rats were housed in individual cages and subjected to a standard light-dark cycle. Three weeks prior to the in vivo studies, we placed a chronic catheter in the third cerebral ventricle by stereotaxic surgery (Obici et al., 2002a; Obici et al., 2001; Liu et al., 1998). One week before the pancreatic-insulin clamp protocols, we placed additional catheters in the right internal jugular and left carotid artery (Obici et al., 2001; Liu et al., 1998). All ICV solutions were dissolved in artificial cerebral spinal fluid (aCSF). Food intake was monitored daily.
Measurements of in vivo glucose kinetics and pancreatic-insulin clamp procedure. The infusion studies lasted a total of 360 min (FIG. 3a). Briefly, at t=0 min a primed-continuous ICV infusion of either CPT1 inhibitors or control solution was initiated and maintained for the remainder of the study. 2-tetradecylglydate (TDGA, a gift from Dr. Manuel Guzman) was dissolved in DMSO, diluted into aCSF (Harvard Apparatus) and infused ICV at a rate of 50 pmoles/hr. […] Prior to the pancreatic-insulin clamp studies, rats receiving ICV injection of either CPT1L-Ribo or vector control three days prior to the clamp procedure were randomized into two pair-fed experimental groups. A primed-continuous infusion of HPLC-purified [3-^3H]-glucose (New England Nuclear, Boston, Mass.; 40 μCi bolus, 0.4 μCi/min) was started at t=120 min and continued for the duration of the study (Obici et al., 2002a; Obici et al., 2001; Liu et al., 1998). Finally, a pancreatic-insulin clamp (Obici et al., 2002a; Obici et al., 2001; Liu et al., 1998) was initiated at t=240 min and lasted for 2 hours. This procedure involved the infusion of somatostatin (3 μg/kg/min), insulin (1 mU/kg/min), and glucose as needed to prevent hypoglycemia, or antibodies against C peptide (Linco) and Melanocortin Receptor type 2 (Chemicon). The rate of insulin infusion was designed to replace normal basal levels in postabsorptive rats.
Radioactivity of [^3H]glucose in plasma was measured from supernatants of Ba(OH)2 and ZnSO4 precipitates after evaporation to dryness for the removal of tritiated water (Somogyi pellet). The specific activity of tritiated water in plasma (Somogyi filtrate) was determined from the total counts of the protein-free supernatant before and after evaporation to dryness. Under steady state conditions for plasma glucose concentration, the rate of glucose disappearance (Rd) equals the rate of glucose appearance (Ra). […]

Regarding `CCCCCCCCCCCCCCNC(=O)N[C@H](CC(=O)[O-])C[N+](C)(C)C` [ST1326, (R)-N-(tetradecylcarbamoyl)-aminocarnitine], the “decrease in glucose production (GP)” value is 44±7% and the “glucose production (GP) during pancreatic clamp vs ICV vehicle controls” value was “markedly inhibited GP”. For the setting “Basal”, the “Body wt.” value is on record as 302 ± 4 g, the “FFA” value turned out to be 0.5 ± 0.1 mM, the “Glucose” value turned out to be 8.1 ± 0.7 mM and the “Insulin” value worked out at 1.4 ± 0.2 ng/mL. Further, where the note is “Basal”, the “Leptin” value stood at 0.9 ± 0.1 ng/mL and the “Food Intake” value worked out at 21 ± 2 g. Besides, under “Clamp, steady-state”, the “FFA” value was 0.4 ± 0.1 mM, the “Glucose” value is given as 8.1 ± 0.8 mM and the “Insulin (iU/ml)” value is reported as 21 ± 2.
As to “CPT1L-Ribo: plasmid (pTarget, CMV promoter) expressing a hammerhead ribozyme that specifically cleaves rat CPT1L mRNA, complexed to PEI for ICV injection (DNA CUGUACCAAAGAGCUGUAGAGUCCGUGAGGACGAAACGCCGCUCACAAUG)”, the “decrease in glucose production (GP)” value is on record as 30±3% and the “glucose production (GP) during pancreatic clamp vs ICV vehicle controls” value is on record as “markedly inhibited GP”. Where the note is “Basal”, the “Body wt.” value was 277 ± 8 g, the “FFA” value amounted to 0.5 ± 0.1 mM, the “Glucose” value is recorded as 8.2 ± 0.6 mM and the “Food Intake” value turned out to be 14 ± 2 g. Further, where the note is “Clamp, steady-state”, the “FFA” value was 0.4 ± 0.1 mM, the “Glucose” value came out at 8.1 ± 0.5 mM and the “Insulin (iU/ml)” value came out at 21 ± 2.

The values are drawn from US7705016B2, “Regulation of food intake by modulation of long-chain fatty acyl-CoA levels in the hypothalamus” (Albert Einstein College of Medicine of Yeshiva University, priority 2003, dated 2010).
